The test system of one assay is HCV genotype 1b replicon in Huh 7 cells. The assay can be described thus: HCV replicon assay (1b_Huh-Luc/Neo-ET cell line, luciferase readout). It is filed as cell-based. Conditions: Hepatitis C virus, Huh-7, 72 h, read-out: Inhibition of HCV genotype 1b. The procedure:
Biological activity of the compounds of the invention was determined using an HCV replicon assay. The 1b_Huh-Luc/Neo-ET cell line persistently expressing a bicistronic genotype 1b replicon in Huh 7 cells was obtained from ReBLikon GMBH. This cell line was used to test compound inhibition using luciferase enzyme activity readout as a measurement of compound inhibition of replicon levels.
On Day 1 (the day after plating), each compound is added in triplicate to the cells. Plates incubated for 72 h prior to running the luciferase assay. Enzyme activity was measured using a Bright-Glo Kit (cat. number E2620) manufactured by Promega Corporation. The following equation was used to generate a percent control value for each compound. % Control=(Average Compound Value/Average Control)*100
The EC50 value was determined using GraphPad Prism and the following equation: Y=Bottom+(Top−Bottom)/(1+10^((Log IC50−X)*HillSlope))
EC50 values of compounds are repeated several times in the replicon assay.
In the case of `CNC(=O)N[C@@H](C(=O)N1CCC[C@H]1c1nc(-c2ccc3cc(-c4ccc(-c5cnc([C@@H]6CCCN6C(=O)[C@@H](NC(=O)OC)C(C)C)[nH]5)cc4)ccc3c2)c[nH]1)c1ccccc1` [14s], the EC50 was less than 1 nM.

Staying with this assay, now noted: Hepatitis C virus; Table 1; genotype 1b replicon, Huh 7 cells, 72 h, luciferase; read-out: Inhibition of HCV genotype 1b.
As to `COC(=O)N[C@H](C(=O)N1CCC[C@H]1c1ncc(-c2ccc3nc(-c4ccc5c(c4)CCc4nc([C@@H]6CCCN6C(=O)[C@@H](NC(=O)OC)C(C)C)[nH]c4-5)ccc3c2)[nH]1)C(C)C` [292-1], the EC50 is less than 1 nM.

As to `COC(=O)N[C@H](C(=O)N1CCC[C@H]1c1nc2c([nH]1)-c1ccc(-c3ccc4cc(-c5cnc([C@@H]6CCCN6C(=O)[C@@H](NC(=O)OC)C6CCOCC6)[nH]5)ccc4n3)cc1CC2)C(C)C` [293-1], the EC50 was less than 1 nM.

As for `COC(=O)N[C@H](C(=O)N1CCC[C@H]1c1nc2c([nH]1)-c1ccc(-c3ccc4cc(-c5cnc([C@@H]6CCCN6C(=O)[C@H](NC(=O)OC)c6ccccc6)[nH]5)ccc4n3)cc1CC2)C(C)C` [294-1], the EC50 is less than 1 nM.

For `COC(=O)N[C@H](C(=O)N1CCC[C@H]1c1nc2c([nH]1)-c1ccc(-c3ccc4cc(-c5cnc([C@@H]6CCCN6C(=O)[C@H](NC(=O)OC6CCOCC6)c6ccccc6)[nH]5)ccc4n3)cc1CC2)C(C)C` [295-1], the EC50 was less than 1 nM.

`COC(=O)N[C@H](C(=O)N1CCC[C@H]1c1nc(-c2ccc3cc(-c4ccc(-c5cnc([C@@H]6CCCN6C(=O)[C@@H](NC(=O)OC)C(C)C)[nH]5)cc4)ccc3c2)c[nH]1)C(C)C` [compound 1]: the EC50 was less than 1 nM.

On to `COC(=O)N[C@@H](C(=O)N1CCC[C@H]1c1nc(-c2ccc3cc(-c4ccc(-c5cnc([C@@H]6CCCN6C(=O)[C@H](NC(=O)OC)C(C)C)[nH]5)cc4)ccc3c2)c[nH]1)C(C)C` [compound 2], for which the EC50 is 1 to 9.9 nM.

As to `COC(=O)N[C@H](C(=O)N1CCC[C@H]1c1nc(-c2ccc3cc(-c4ccc(-c5cnc([C@@H]6CCCN6C(=O)[C@@H](NC(=O)OC)[C@@H](C)OC)[nH]5)cc4)ccc3c2)c[nH]1)[C@@H](C)OC` [compound 3], the EC50 is less than 1 nM.

With `COC(=O)N[C@H](C(=O)N1CCC[C@H]1c1nc(-c2ccc3cc(-c4ccc(-c5cnc([C@@H]6CCCN6C(=O)[C@@H](NC(=O)OC)[C@@H](C)O)[nH]5)cc4)ccc3c2)c[nH]1)[C@@H](C)O` [compound 4], the EC50 is less than 1 nM.

In the case of `COC(=O)N[C@H](C(=O)N1CCC[C@H]1c1nc(-c2ccc3cc(-c4ccc(-c5cnc([C@@H]6CCCN6C(=O)[C@@H](c6ccccc6)N(C)C)[nH]5)cc4)ccc3c2)c[nH]1)C(C)C` [compound 5], the EC50 was less than 1 nM.

Consider `COC(=O)N[C@H](C(=O)N1CCC[C@H]1c1ncc(-c2ccc(-c3ccc4cc(-c5c[nH]c([C@@H]6CCCN6C(=O)[C@@H](c6ccccc6)N(C)C)n5)ccc4c3)cc2)[nH]1)C(C)C` [compound 6], for which the EC50 is less than 1 nM.

As to `COC(=O)N[C@H](C(=O)N1CCC[C@H]1c1ncc(-c2ccc(-c3ccc4cc(-c5c[nH]c([C@@H]6CCCN6C(=O)[C@H](NC(=O)OC)c6ccccc6)n5)ccc4c3)cc2)[nH]1)C(C)C` [compound 7], the EC50 was less than 1 nM.

For `COC(=O)N[C@H](C(=O)N1CCC[C@H]1c1nc(-c2ccc3cc(-c4ccc(-c5cnc([C@@H]6CCCN6C(=O)[C@H](NC(=O)OC)c6ccccc6)[nH]5)cc4)ccc3c2)c[nH]1)C(C)C` [compound 8], the EC50 is less than 1 nM.

Consider `COC(=O)N[C@H](C(=O)N1CCC[C@H]1c1ncc(-c2ccc(-c3ccc4cc(-c5c[nH]c([C@@H]6CCCN6C(=O)[C@@H](c6ccccc6)N6CCCC6)n5)ccc4c3)cc2)[nH]1)C(C)C` [compound 9], for which the EC50 was less than 1 nM.

For the molecule `COC(=O)N[C@H](C(=O)N1CCC[C@H]1c1nc(-c2ccc3cc(-c4ccc(-c5cnc([C@@H]6CCCN6C(=O)[C@@H](c6ccccc6)N6CCCC6)[nH]5)cc4)ccc3c2)c[nH]1)C(C)C` [compound 10], the EC50 is less than 1 nM.

On to `COC(=O)N[C@H](C(=O)N1CCC[C@H]1c1nc(-c2ccc3nc(-c4ccc(-c5cnc([C@@H]6CCCN6C(=O)[C@@H](NC(=O)OC)C(C)C)[nH]5)cc4)cnc3c2)c[nH]1)C(C)C` [compound 11], for which the EC50 was less than 1 nM.

For `COC(=O)N[C@H](C(=O)N1CCC[C@H]1c1ncc(-c2ccc(-c3cnc4ccc(-c5cnc([C@@H]6CCCN6C(=O)[C@@H](NC(=O)OC)C(C)C)[nH]5)cc4n3)cc2)[nH]1)C(C)C` [compound 12], the EC50 is 1 to 9.9 nM.

Turning to `COC(=O)N[C@H](C(=O)N1CCC[C@H]1c1nc(-c2ccc3cc(-c4ccc(-c5cnc([C@@H]6CCCN6C(=O)[C@@H](NC(=O)OC)C(C)C)[nH]5)cn4)ccc3c2)c[nH]1)C(C)C` [compound 13], the EC50 was less than 1 nM.

`COC(=O)N[C@H](C(=O)N1CCC[C@H]1c1ncc(-c2ccc(-c3ccc4cc(-c5c[nH]c([C@@H]6CCCN6C(=O)[C@H](NC(=O)N6CC[C@H](O)C6)c6ccccc6)n5)ccc4c3)cc2)[nH]1)C(C)C` [compound 15]: the EC50 is less than 1 nM.

For `COC(=O)N[C@H](C(=O)N1CCC[C@H]1c1nc(-c2ccc3cc(-c4ccc(-c5cnc([C@@H]6CCCN6C(=O)[C@H](NC(=O)N6CC[C@H](O)C6)c6ccccc6)[nH]5)cc4)ccc3c2)c[nH]1)C(C)C` [compound 16], the EC50 was less than 1 nM.

As for `COC(=O)N[C@H](C(=O)N1CCC[C@H]1c1nc(-c2ccc3nc(-c4ccc(-c5cnc([C@@H]6CCCN6C(=O)[C@@H](NC(=O)OC)C(C)C)[nH]5)cc4)ncc3c2)c[nH]1)C(C)C` [compound 17], the EC50 is less than 1 nM.

Take `CNC(=O)N[C@@H](C(=O)N1CCC[C@H]1c1ncc(-c2ccc(-c3ccc4cc(-c5c[nH]c([C@@H]6CCCN6C(=O)[C@@H](NC(=O)OC)C(C)C)n5)ccc4c3)cc2)[nH]1)c1ccccc1` [compound 18]: the EC50 was less than 1 nM.

With `COC(=O)N[C@H](C(=O)N1CCC[C@H]1c1nc(-c2cnc3cc(-c4ccc(-c5cnc([C@@H]6CCCN6C(=O)[C@@H](NC(=O)OC)C(C)C)[nH]5)cc4)ccc3c2)c[nH]1)C(C)C` [compound 19], the EC50 is less than 1 nM.

As to `COC(=O)N[C@H](C(=O)N1CCC[C@H]1c1ncc(-c2ccc(-c3cccc4c(-c5cnc([C@@H]6CCCN6C(=O)[C@@H](NC(=O)OC)C(C)C)[nH]5)cccc34)cc2)[nH]1)C(C)C` [compound 20], the EC50 was less than 1 nM.

For `COC(=O)N[C@H](C(=O)N1CCC[C@H]1c1nc(-c2ccc3cc(-c4ccc(-c5cnc([C@@H]6CCCN6C(=O)[C@@H](NC(=O)OC)C(C)C)[nH]5)cc4)cnc3c2)c[nH]1)C(C)C` [compound 21], the EC50 is less than 1 nM.

On to `COC(=O)N[C@H](C(=O)N1CCC[C@H]1c1nc(-c2ccc3cc(-c4ccc(-c5cnc([C@@H]6CCCN6C(=O)[C@@H](NC(=O)OC)C(C)C)[nH]5)cc4)ncc3c2)c[nH]1)C(C)C` [compound 22], for which the EC50 is less than 1 nM.

As for `COC(=O)N[C@H](C(=O)N1CCC[C@H]1c1ncc(-c2ccc(-c3ccc4cc(-c5c[nH]c([C@@H]6CCCN6C(=O)[C@H](NC(=O)NC(C)(C)C)c6ccccc6)n5)ccc4c3)cc2)[nH]1)C(C)C` [compound 23], the EC50 is less than 1 nM.

As to `COC(=O)N[C@H](C(=O)N1CCC[C@H]1c1nc(-c2ccc3cc(-c4ccc(-c5cnc([C@@H]6CCCN6C(=O)[C@H](NC(=O)NC6CC6)c6ccccc6)[nH]5)cc4)ccc3c2)c[nH]1)C(C)C` [compound 24], the EC50 was less than 1 nM.

For the molecule `COC(=O)N[C@H](C(=O)N1CCC[C@H]1c1nc(-c2ccc3cc(-c4ccc(-c5cnc([C@@H]6CCCN6C(=O)[C@H](NC(=O)NC(C)(C)C)c6ccccc6)[nH]5)cc4)ccc3c2)c[nH]1)C(C)C` [compound 25], the EC50 was less than 1 nM.

As for `COC(=O)N[C@H](C(=O)N1CCC[C@H]1c1nc(-c2ccc3nc(-c4ccc(-c5cnc([C@@H]6CCCN6C(=O)[C@H](NC(=O)OC)c6ccccc6)[nH]5)cc4)ccc3c2)c[nH]1)C(C)C` [compound 26], the EC50 was less than 1 nM.

As to `CCNC(=O)N[C@@H](C(=O)N1CCC[C@H]1c1ncc(-c2ccc(-c3ccc4cc(-c5c[nH]c([C@@H]6CCCN6C(=O)[C@@H](NC(=O)OC)C(C)C)n5)ccc4c3)cc2)[nH]1)c1ccccc1` [compound 27], the EC50 is less than 1 nM.

With `CCNC(=O)N[C@@H](C(=O)N1CCC[C@H]1c1nc(-c2ccc3cc(-c4ccc(-c5cnc([C@@H]6CCCN6C(=O)[C@@H](NC(=O)OC)C(C)C)[nH]5)cc4)ccc3c2)c[nH]1)c1ccccc1` [compound 28], the EC50 is less than 1 nM.

Staying with this assay, now noted: Hepatitis C virus; Table 2; genotype 1b replicon, Huh 7 cells, 72 h, luciferase; read-out: Inhibition of HCV genotype 1b.
Turning to `COC[C@H](NC(=O)OC)C(=O)N1CCOC[C@H]1c1ncc(-c2ccc3cc(-c4ccc(-c5cnc([C@@H]6CCCN6C(=O)[C@H](NC(=O)OC)c6ccccc6)[nH]5)cc4)ccc3c2)[nH]1` [325-1], the EC50 was less than 1 nM.

In the case of `COC(=O)N[C@H](C(=O)N1CCC[C@H]1c1ncc(-c2ccc3cc(-c4ccc(-c5cnc([C@@H]6CCCN6C(=O)[C@H](NC(=O)OC)c6ccsc6)[nH]5)cc4)ccc3c2)[nH]1)[C@@H](C)OC` [330-1], the EC50 is less than 1 nM.

For the molecule `COC(=O)N[C@H](C(=O)N1CCC[C@H]1c1ncc(-c2ccc3cc(-c4ccc(-c5cnc([C@@H]6CCCN6C(=O)[C@H](NC(=O)OC)c6cccs6)[nH]5)cc4)ccc3c2)[nH]1)[C@@H](C)OC` [331-1], the EC50 was less than 1 nM.

Regarding `COC[C@H](NC(=O)OC)C(=O)N1CCC[C@H]1c1ncc(-c2ccc3cc(-c4ccc5nc([C@@H]6CCCN6C(=O)[C@H](COC)NC(=O)OC)[nH]c5c4)ccc3c2)[nH]1` [345-1], the EC50 is less than 1 nM.

Take `COC[C@H](NC(=O)OC)C(=O)N1CCC[C@H]1c1ncc(-c2ccc3cc(-c4ccc5nc([C@@H]6COCCN6C(=O)[C@H](COC)NC(=O)OC)[nH]c5c4)ccc3c2)[nH]1` [358-1]: the EC50 was less than 1 nM.

Values taken from patent US8877707B2, “Inhibitors of HCV NS5A” (Presidio Pharmaceuticals, Inc., priority 2010, dated 2014).
